# Measured values: patent US5106407A, “Iodones and methods for antimicrobial use” (priority 1989, dated 1992)
# Tests used:
# [1] = tested on: bacteria listed in Table I, Klebsiella oxytoca, Enterobacter gergoviae, Pseudomonas putida #1, and Pseudomonas putida #2; experiment: protein shampoo preservation test
# Experimental: (§1) Fifty gram aliquots of the latex were placed in sterile bottles and one hundred gram aliquots of the diluted cutting oil were placed in 250-mL Erlenmeyer flasks. An appropriate amount of a fresh 1 percent stock solution of (2-nitrophenyl)-iodonium 2,2-dimethyl-4,6-dioxo-1,3-dioxan-5-ylide in acetone-water was added to achieve the desired final concentrations (see Tables 5 and 6). A small portion of the respective latex or cutting oil preparation was then streaked onto Tryptic Soy Agar (TSA) petri plates using sterile cotton swabs to determine whether the preparations were sterile. If the particular preparation was sterile, it was then inoculated with an appropriate volume (0.1 mL for the latex and 0.2 mL for the cutting oil) of a mixture of equal aliquots of 24 hr cultures of each of the bacterial organisms listed in Table 1 (not the fungi and yeast). The latex samples were incubated at 30° C. and the cutting oils were agitated on a rotary shaker at room temperature. After 24 hr, all samples were again streaked on TSA. All plates were then incubated at 30° C. for 48 hr and then rated 1 to 10 according to the growth rating system described in Table 4.
# (§2) The results from this first set of streaks after inoculation are listed in the columns labeled streak number 1 in Tables 5 and 6. Samples with a rating of 3 or less from streak number 1 were reinoculated as described for the first inoculation above. Samples with a rating of 4 or greater were not reinoculated. After another 24 hr all samples were again restreaked on TSA agar. The results from these second streaks were labeled streak number 2 in Tables 5 and 6. Samples were reinoculated and restreaked in this fashion for a maximum of 10 streaks. Any samples with two streaks in a row with a ten rating were not restreaked again.
# (§3) The ingredients of the hand creme, hand lotion, and protein shampoo are listed in Tables 7, 8 and 9, respectively. In the cosmetic preservative procedures, the stock solution of (2-nitrophenyl)-iodonium 2,2-dimethyl-4,6-dioxo-1,3-dioxan-5-ylide) was made in dimethylformamide (DMF)/water solution. In addition to the bacteria listed in Table I, the following bacteria were also included in the inocula: Klebsiella oxytoca, Enterobacter gergoviae, Pseudomonas putida #1, and Pseudomonas putida #2.
# [2] = tested on: bacteria listed in Table I, Klebsiella oxytoca, Enterobacter gergoviae, Pseudomonas putida #1, and Pseudomonas putida #2; experiment: hand lotion preservation test;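 further: colony count scale from 1 for no colonies up to 10 for a solid mass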
# Experimental: as §1, §2, §3
smiles,measurement,setting,value
"CC1(C)OC(=O)[C-]([I+]c2ccccc2[N+](=O)[O-])C(=O)O1 [Example 19, (2-Nitrophenyl)-iodonium 2,2-dimethyl-4,6-dioxo-1,3-dioxan-5-ylide]",growth rating,"[1]; 10 ppm, streak 1",1 (0)
same,growth rating,"[1]; 10 ppm, streak 2",1 (0)
same,growth rating,"[1]; 10 ppm, streak 10",1 (0)
same,growth rating,"[1]; 25 ppm, streak 1",1 (0)
same,growth rating,"[1]; 25 ppm, streak 2",1 (0)
same,growth rating,"[1]; 25 ppm, streak 3",1 (0)
same,growth rating,"[1]; 25 ppm, streak 4",1 (0)
same,growth rating,"[1]; 25 ppm, streak 5",1 (0)
same,growth rating,"[1]; 25 ppm, streak 6",1 (0)
same,growth rating,"[1]; 25 ppm, streak 7",1 (0)
same,growth rating,"[1]; 25 ppm, streak 8",1 (0)
same,growth rating,"[1]; 25 ppm, streak 9",1 (0)
same,growth rating,"[1]; 25 ppm, streak 10",1 (0)
same,growth rating,"[1]; 50 ppm, streak 1",1 (0)
same,growth rating,"[1]; 50 ppm, streak 2",1 (0)
same,growth rating,"[1]; 50 ppm, streak 3",1 (0)
same,growth rating,"[1]; 50 ppm, streak 4",1 (0)
same,growth rating,"[1]; 50 ppm, streak 5",1 (0)
same,growth rating,"[1]; 50 ppm, streak 6",1 (0)
same,growth rating,"[1]; 50 ppm, streak 7",1 (0)
same,growth rating,"[1]; 50 ppm, streak 8",1 (0)
same,growth rating,"[1]; 50 ppm, streak 9",1 (0)
same,growth rating,"[1]; 50 ppm, streak 10",1 (0)
same,growth rating,"[1]; 100 ppm, streak 1",1 (0)
same,growth rating,"[1]; 100 ppm, streak 2",1 (0)
same,growth rating,"[1]; 100 ppm, streak 3",1 (0)
same,growth rating,"[1]; 100 ppm, streak 4",1 (0)
same,growth rating,"[1]; 100 ppm, streak 5",1 (0)
same,growth rating,"[1]; 100 ppm, streak 6",1 (0)
same,growth rating,"[1]; 100 ppm, streak 7",1 (0)
same,growth rating,"[1]; 100 ppm, streak 8",1 (0)
same,growth rating,"[1]; 100 ppm, streak 9",1 (0)
same,growth rating,"[1]; 100 ppm, streak 10",4 (11-25)
same,growth rating,"[2]; 10 ppm, streak 1",1 (0)
same,growth rating,"[2]; 10 ppm, streak 2",1 (0)
same,growth rating,"[2]; 10 ppm, streak 3",2 (1-4)
same,growth rating,"[2]; 10 ppm, streak 6",9
same,growth rating,"[2]; 10 ppm, streak 8",9
same,growth rating,"[2]; 10 ppm, streak 9",10
same,growth rating,"[2]; 10 ppm, streak 10",10
same,growth rating,"[2]; 25 ppm, streak 1",1 (0)
same,growth rating,"[2]; 25 ppm, streak 2",1 (0)
same,growth rating,"[2]; 25 ppm, streak 3",1 (0)
same,growth rating,"[2]; 25 ppm, streak 4",1 (0)
same,growth rating,"[2]; 25 ppm, streak 5",1 (0)
same,growth rating,"[2]; 25 ppm, streak 6",1 (0)
same,growth rating,"[2]; 25 ppm, streak 7",1 (0)
same,growth rating,"[2]; 25 ppm, streak 8",1 (0)
same,growth rating,"[2]; 25 ppm, streak 9",1 (0)
same,growth rating,"[2]; 25 ppm, streak 10",2 (1-4)
same,growth rating,"[2]; 50 ppm, streak 1",1 (0)
same,growth rating,"[2]; 50 ppm, streak 2",1 (0)
same,growth rating,"[2]; 50 ppm, streak 3",1 (0)
same,growth rating,"[2]; 50 ppm, streak 4",1 (0)
same,growth rating,"[2]; 50 ppm, streak 5",1 (0)
same,growth rating,"[2]; 50 ppm, streak 6",1 (0)
same,growth rating,"[2]; 50 ppm, streak 7",1 (0)
same,growth rating,"[2]; 50 ppm, streak 8",1 (0)
same,growth rating,"[2]; 50 ppm, streak 9",1 (0)
same,growth rating,"[2]; 50 ppm, streak 10",1 (0)
same,growth rating,"[2]; 100 ppm, streak 1",1 (0)
same,growth rating,"[2]; 100 ppm, streak 2",1 (0)
same,growth rating,"[2]; 100 ppm, streak 3",1 (0)
same,growth rating,"[2]; 100 ppm, streak 4",1 (0)
same,growth rating,"[2]; 100 ppm, streak 5",1 (0)
same,growth rating,"[2]; 100 ppm, streak 6",1 (0)
same,growth rating,"[2]; 100 ppm, streak 7",1 (0)
same,growth rating,"[2]; 100 ppm, streak 8",1 (0)
same,growth rating,"[2]; 100 ppm, streak 9",1 (0)
same,growth rating,"[2]; 100 ppm, streak 10",1 (0)
